The text below walks through data of US20130317068A1, “SUBSTITUTED 1,2,4-TRIAZOLE COMPOUNDS AS A SEED TREATMENT TO CONTROL PESTS” (Dow Agrosciences LLC, priority 2012, published 2013).

The structures appear in SMILES notation.

In data set [1] the test system is Aphis gossypii (cotton aphid). Put plainly: Insecticidal activity on cotton aphid, solutions applied to cabbage leaf surface then infested. The data set is classed as in vivo. The conditions noted are these: for mortality at 50 ppm / mortality at 200 ppm: Aphis gossypii; for mortality at 200 ppm: Rate 200 PPM solution. The method, then: (§1) Different substituted 1,2,4-triazole compounds of the present disclosure were tested for insecticidal activity on Aphis gossypii (cotton aphid) and Myzus persicae (green peach aphid). The different substituted 1,2,4-triazole compounds were formulated as either 200 PPM solutions or 50 PPM solutions. The 200 PPM solutions or 50 PPM solutions of the different substituted 1,2,4-triazole compounds were applied to a cabbage leaf surface and the resulting samples were subjected to an infestation of Aphis gossypii and Myzus persicae.
(§2) In Table 1, “ND” means mortality data was not determined at this rate.

Data set [2] concerns Myzus persicae (green peach aphid). Put plainly: Insecticidal activity on green peach aphid, solutions applied to cabbage leaf surface then infested. The class given is in vivo. The conditions noted are these: for mortality at 50 ppm: Rate 50 PPM solution; for mortality at 200 ppm: Rate 200 PPM solution. The method, then:
as §1, §2

Usually mortality stands for the percentage killed. A lower mortality goes with more survivors. As to `Cn1nc(-c2c(F)cccc2Cl)nc1-c1sc(Cl)c(Cl)c1Cl`, the results for the mortality at 50 ppm in data set [1] (Rate 50 PPM solution) and in data set [2] were 32% and 81%, respectively. In data set [1], this compound gave a mortality at 200 ppm of 99%.

On to `Cc1c(Br)csc1-c1nc(-c2c(F)cccc2Cl)nn1C`, for which the mortality at 50 ppm in data set [1] (Rate 50 PPM solution) was determined as 96%; in data set [2], 87%. Also, the figures for the mortality at 200 ppm in data set [1] and in data set [2] were 100% and 63%, respectively.

In data set [1] (Rate 50 PPM solution), `Cn1nc(-c2c(Cl)cncc2Cl)nc1-c1ccc(C(F)(F)F)cc1` showed a mortality at 50 ppm of 88%. Besides, in data set [2], the mortality at 50 ppm is 79% and the mortality at 200 ppm was determined as 87%.

Turning to `Cc1c(-c2nc(-c3c(F)cccc3Cl)nn2C)csc1-c1ccc(OC(F)(F)C(F)Cl)cc1` (stereo not drawn), the mortality at 50 ppm worked out at 84% in data set [1] (Rate 50 PPM solution) and 73% in data set [2].

With `Cc1cc(-c2ccc(OC(F)(F)C(F)Cl)cc2)sc1-c1nc(-c2c(F)cccc2Cl)nn1C` (stereo not drawn), the mortality at 50 ppm in data set [1] (Rate 50 PPM solution) is 66%; in data set [2] it was 75%.

As to `Cn1nc(-c2c(F)cccc2F)nc1C1(C)CC1(Cl)Cl` (stereo not drawn) [drawing 11], the mortality at 50 ppm in data set [1] (Rate 50 PPM solution) was 90%. In data set [2], the mortality at 50 ppm stood at 13% and the mortality at 200 ppm is 81%.

`Cn1nc(-c2c(F)cccc2F)nc1C1(C)CC1(Cl)Cl` (stereo not drawn) [drawing 12]: in data set [1] (Rate 50 PPM solution), the “Average % mortality, Cotton Aphid” value is reported as 95%.
